According to article PMC8429728, “TNK1 is a ubiquitin-binding and 14-3-3-regulated kinase that can be targeted to block tumor growth” (Nature Communications, 2021):
Where two headings read alike, the source gives them in different places.

What was measured:
Test in all cases: biochemical
Set-up in all cases: Reaction Biology 371-kinase panel at Km ATP, per cent enzyme activity relative to DMSO, single dose in duplicate
MRCKb/CDC42BPB = MRCKb/CDC42BPB (Homo sapiens, UniProt Q9Y5S2); settings: duplicate measurements, Km ATP
In short: (§1)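 First, kinases from a 371-member panel were exposed in vitro to 300 nM inhibitor. Next, % enzyme activity versus DMSO was computed. Finally, IC50s were derived by sigmoidal dose-response fitting with variable slope and a zero bottom constraint.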

PASK = PASK (Homo sapiens, UniProt Q96RG2); settings: duplicate measurements, Km ATP; read-out: % Enzyme Activity (relative to DMSO controls) / TP-0005801 (0.3µM) / Data 1
In short: as §1

NEK1 = NEK1 (Homo sapiens, UniProt Q96PY6); settings: duplicate measurements, Km ATP
In short: as §1

CDK1/cyclin E = CDK1/cyclin E (Homo sapiens, UniProt P06493); settings: duplicate measurements, Km ATP
In short: as §1

ABL2/ARG = ABL2/ARG (Homo sapiens, UniProt P42684); settings: duplicate measurements, Km ATP
In short: as §1

GRK4 = GRK4 (Homo sapiens, UniProt P32298); settings: duplicate measurements, Km ATP
In short: as §1

RET = RET (Homo sapiens, UniProt P07949); settings: duplicate measurements, Km ATP
In short: as §1

DYRK1B = DYRK1B (Homo sapiens, UniProt Q9Y463); settings: duplicate measurements, Km ATP
Sequence of DYRK1B (Q9Y463 whole entry): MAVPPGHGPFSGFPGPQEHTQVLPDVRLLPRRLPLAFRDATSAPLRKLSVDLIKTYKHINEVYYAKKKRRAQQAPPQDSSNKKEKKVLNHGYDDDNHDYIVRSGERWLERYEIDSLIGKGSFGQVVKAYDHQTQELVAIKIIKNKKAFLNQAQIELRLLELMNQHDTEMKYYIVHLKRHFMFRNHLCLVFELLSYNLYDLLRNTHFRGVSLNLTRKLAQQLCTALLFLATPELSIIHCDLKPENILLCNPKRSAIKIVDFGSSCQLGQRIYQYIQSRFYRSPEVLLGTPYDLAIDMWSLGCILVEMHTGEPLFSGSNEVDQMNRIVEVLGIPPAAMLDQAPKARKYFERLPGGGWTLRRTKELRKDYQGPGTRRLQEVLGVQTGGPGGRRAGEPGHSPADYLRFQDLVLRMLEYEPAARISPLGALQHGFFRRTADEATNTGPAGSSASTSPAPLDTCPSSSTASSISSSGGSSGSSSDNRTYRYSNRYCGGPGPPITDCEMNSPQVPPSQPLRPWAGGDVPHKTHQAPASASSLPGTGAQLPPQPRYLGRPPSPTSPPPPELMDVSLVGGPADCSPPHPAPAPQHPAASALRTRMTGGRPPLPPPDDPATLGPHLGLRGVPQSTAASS
In short: as §1

IKKb/IKBKB = IKKb/IKBKB (Homo sapiens, UniProt O14920); settings: duplicate measurements, Km ATP
Sequence of IKKb/IKBKB (O14920 whole entry): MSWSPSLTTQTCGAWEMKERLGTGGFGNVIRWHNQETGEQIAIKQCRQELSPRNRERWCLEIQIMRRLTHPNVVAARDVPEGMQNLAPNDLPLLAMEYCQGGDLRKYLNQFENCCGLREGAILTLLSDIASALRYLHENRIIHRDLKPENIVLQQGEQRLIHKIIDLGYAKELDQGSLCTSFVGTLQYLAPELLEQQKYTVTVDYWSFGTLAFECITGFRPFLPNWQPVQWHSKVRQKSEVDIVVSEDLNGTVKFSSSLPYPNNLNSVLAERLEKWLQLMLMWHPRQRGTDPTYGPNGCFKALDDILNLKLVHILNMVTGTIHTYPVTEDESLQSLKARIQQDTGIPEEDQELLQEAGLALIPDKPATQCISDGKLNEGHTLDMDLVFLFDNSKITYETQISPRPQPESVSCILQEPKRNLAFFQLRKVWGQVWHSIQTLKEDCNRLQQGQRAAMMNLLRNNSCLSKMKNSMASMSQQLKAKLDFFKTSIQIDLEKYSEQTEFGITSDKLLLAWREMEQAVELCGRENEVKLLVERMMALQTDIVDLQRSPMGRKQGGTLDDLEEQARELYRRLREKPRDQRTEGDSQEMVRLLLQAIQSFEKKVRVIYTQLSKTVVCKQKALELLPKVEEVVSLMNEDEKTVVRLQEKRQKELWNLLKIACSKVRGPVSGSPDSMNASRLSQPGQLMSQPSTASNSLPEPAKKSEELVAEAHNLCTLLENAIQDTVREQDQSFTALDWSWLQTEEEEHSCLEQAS
In short: as §1

KSR2 = KSR2 (Homo sapiens, UniProt Q6VAB6); settings: duplicate measurements, Km ATP
In short: as §1

MYLK4 = MYLK4 (Homo sapiens, UniProt Q86YV6); settings: duplicate measurements, Km ATP
In short: as §1

STK33 = STK33 (Homo sapiens, UniProt Q9BYT3); settings: duplicate measurements, Km ATP
In short: as §1

PDK1/PDPK1 = PDK1/PDPK1 (Homo sapiens, UniProt O15530); settings: duplicate measurements, Km ATP
Sequence of PDK1/PDPK1 (O15530 whole entry): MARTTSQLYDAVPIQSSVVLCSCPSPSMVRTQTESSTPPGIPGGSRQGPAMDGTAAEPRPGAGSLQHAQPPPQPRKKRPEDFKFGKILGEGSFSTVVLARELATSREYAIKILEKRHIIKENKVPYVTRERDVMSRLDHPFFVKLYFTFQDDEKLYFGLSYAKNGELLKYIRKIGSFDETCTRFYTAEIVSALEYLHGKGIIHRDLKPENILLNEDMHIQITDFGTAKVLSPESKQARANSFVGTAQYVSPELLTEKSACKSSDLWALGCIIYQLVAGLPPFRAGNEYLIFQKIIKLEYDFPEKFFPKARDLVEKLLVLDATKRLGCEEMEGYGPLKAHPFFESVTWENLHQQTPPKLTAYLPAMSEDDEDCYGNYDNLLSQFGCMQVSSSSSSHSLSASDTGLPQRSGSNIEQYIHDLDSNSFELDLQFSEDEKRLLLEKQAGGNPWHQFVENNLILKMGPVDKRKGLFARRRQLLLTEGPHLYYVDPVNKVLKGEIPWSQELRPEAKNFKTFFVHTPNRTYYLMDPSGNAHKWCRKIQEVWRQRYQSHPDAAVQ
In short: as §1

CK1epsilon = molecular target: T1, CK1epsilon (Homo sapiens, UniProt P49674); settings: duplicate measurements, Km ATP
T1 construct: gene CSNK1E
In short: as §1

PLK2 = PLK2 (Homo sapiens, UniProt Q9NYY3); settings: duplicate measurements, Km ATP
Sequence of PLK2 (Q9NYY3 whole entry): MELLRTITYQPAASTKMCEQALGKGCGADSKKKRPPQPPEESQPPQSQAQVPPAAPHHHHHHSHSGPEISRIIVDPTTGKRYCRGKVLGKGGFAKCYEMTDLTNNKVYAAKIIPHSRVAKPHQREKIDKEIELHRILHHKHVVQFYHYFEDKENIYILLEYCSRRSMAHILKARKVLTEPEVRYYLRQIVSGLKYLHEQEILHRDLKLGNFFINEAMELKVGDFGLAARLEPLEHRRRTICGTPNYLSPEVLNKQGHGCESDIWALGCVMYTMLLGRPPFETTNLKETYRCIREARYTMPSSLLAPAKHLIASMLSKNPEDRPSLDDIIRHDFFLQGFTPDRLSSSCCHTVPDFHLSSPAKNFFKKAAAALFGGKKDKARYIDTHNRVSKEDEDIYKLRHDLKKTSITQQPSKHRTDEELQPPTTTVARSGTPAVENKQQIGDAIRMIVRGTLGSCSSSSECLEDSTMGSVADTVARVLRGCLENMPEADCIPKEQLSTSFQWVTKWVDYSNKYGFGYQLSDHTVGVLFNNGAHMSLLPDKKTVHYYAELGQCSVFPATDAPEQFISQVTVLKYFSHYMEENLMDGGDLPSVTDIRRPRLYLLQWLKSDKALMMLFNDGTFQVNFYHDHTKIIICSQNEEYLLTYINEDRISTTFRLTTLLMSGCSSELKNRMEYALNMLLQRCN
In short: as §1

CAMK1a = molecular target: T2, CAMK1a (Homo sapiens, UniProt Q14012); settings: duplicate measurements, Km ATP
T2 construct: gene CAMK1
In short: as §1

JAK3 = JAK3 (Homo sapiens, UniProt P52333); settings: duplicate measurements, Km ATP
Sequence of JAK3 (P52333 whole entry): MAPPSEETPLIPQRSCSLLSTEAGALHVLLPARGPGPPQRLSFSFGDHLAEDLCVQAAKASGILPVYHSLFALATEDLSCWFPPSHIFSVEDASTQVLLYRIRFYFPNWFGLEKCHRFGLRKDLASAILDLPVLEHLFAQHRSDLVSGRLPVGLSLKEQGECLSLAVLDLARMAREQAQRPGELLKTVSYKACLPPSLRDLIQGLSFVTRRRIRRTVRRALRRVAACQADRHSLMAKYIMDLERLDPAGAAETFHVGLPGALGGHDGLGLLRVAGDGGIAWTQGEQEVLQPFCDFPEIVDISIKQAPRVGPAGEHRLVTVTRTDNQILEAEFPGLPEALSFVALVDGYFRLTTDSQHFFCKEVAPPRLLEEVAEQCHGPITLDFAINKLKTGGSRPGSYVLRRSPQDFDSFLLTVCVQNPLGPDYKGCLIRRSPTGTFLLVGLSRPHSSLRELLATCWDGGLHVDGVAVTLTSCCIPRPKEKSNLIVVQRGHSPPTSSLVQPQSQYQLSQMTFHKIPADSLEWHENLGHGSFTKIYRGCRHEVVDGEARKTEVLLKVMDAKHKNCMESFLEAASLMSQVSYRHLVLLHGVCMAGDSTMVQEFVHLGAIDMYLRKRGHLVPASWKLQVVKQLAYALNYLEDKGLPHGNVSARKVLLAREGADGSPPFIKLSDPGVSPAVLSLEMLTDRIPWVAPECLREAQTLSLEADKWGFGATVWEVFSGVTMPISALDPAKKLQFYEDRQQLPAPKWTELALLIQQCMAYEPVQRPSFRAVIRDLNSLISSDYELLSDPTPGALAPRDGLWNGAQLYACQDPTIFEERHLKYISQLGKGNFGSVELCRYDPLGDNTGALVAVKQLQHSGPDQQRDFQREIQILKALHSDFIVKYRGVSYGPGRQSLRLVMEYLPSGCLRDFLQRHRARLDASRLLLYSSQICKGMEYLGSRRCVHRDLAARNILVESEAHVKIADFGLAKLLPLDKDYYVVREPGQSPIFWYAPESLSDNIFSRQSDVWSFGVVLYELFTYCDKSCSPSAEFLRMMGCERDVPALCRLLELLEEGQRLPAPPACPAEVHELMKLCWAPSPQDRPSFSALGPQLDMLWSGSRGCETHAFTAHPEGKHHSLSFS
In short: as §1

ASK1/MAP3K5 = ASK1/MAP3K5 (Homo sapiens, UniProt Q99683); settings: duplicate measurements, Km ATP
In short: as §1

PYK2 = molecular target: T3, PYK2 (Homo sapiens, UniProt Q14289); settings: duplicate measurements, Km ATP
T3 construct: gene PTK2B
T3 sequence (Q14289 whole entry): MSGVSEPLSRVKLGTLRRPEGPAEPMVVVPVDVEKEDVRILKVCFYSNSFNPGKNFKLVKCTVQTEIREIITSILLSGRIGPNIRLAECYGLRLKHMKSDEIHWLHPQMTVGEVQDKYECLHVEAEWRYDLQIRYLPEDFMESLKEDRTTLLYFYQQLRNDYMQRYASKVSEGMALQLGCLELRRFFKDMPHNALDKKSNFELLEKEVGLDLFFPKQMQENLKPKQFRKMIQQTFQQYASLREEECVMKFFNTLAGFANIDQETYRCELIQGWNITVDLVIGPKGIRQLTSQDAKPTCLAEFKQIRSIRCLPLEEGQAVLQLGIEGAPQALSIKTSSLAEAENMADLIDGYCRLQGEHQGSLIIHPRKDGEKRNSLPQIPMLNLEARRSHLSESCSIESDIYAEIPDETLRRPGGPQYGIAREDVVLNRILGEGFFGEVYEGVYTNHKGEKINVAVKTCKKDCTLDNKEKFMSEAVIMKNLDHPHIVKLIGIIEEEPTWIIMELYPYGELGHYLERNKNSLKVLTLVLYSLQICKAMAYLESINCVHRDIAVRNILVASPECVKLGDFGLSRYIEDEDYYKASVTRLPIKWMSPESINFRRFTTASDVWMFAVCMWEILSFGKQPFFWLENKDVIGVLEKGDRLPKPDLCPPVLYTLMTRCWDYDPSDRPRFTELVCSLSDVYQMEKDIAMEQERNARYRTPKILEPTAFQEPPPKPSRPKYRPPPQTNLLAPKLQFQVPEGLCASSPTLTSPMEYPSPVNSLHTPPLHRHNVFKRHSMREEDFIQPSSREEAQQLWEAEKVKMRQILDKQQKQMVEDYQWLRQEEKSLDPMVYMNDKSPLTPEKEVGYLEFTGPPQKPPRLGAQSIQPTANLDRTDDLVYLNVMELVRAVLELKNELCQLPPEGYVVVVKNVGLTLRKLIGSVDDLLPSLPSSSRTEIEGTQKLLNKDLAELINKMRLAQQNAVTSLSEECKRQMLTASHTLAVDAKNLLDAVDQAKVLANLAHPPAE
In short: as §1

MUSK = MUSK (Homo sapiens, UniProt O15146); settings: duplicate measurements, Km ATP
In short: as §1

[1] = read-out: % Enzyme Activity (relative to DMSO controls) / TP-0005801 (0.3µM) / Data 1
[2] = read-out: % Enzyme Activity (relative to DMSO controls) / TP-0005801 (0.3µM) / Data 2

- remaining activity at 0.3 µM (MRCKb/CDC42BPB; [1]): 99.2%
- remaining activity at 0.3 µM (MRCKb/CDC42BPB; [2]): 98%
- remaining activity at 0.3 µM (PASK): 102%
- remaining activity at 0.3 µM (NEK1; [1]): 105%
- remaining activity at 0.3 µM (NEK1; [2]): 104%
- remaining activity at 0.3 µM (CDK1/cyclin E; [1]): 97.2%
- remaining activity at 0.3 µM (CDK1/cyclin E; [2]): 94.9%
- remaining activity at 0.3 µM (ABL2/ARG; [1]): 93.2%
- remaining activity at 0.3 µM (ABL2/ARG; [2]): 91.6%
- remaining activity at 0.3 µM (GRK4; [1]): 109%
- remaining activity at 0.3 µM (GRK4; [2]): 108%
- remaining activity at 0.3 µM (RET; [1]): 83.2%
- remaining activity at 0.3 µM (RET; [2]): 81.2%
- remaining activity at 0.3 µM (DYRK1B; [1]): 77.1%
- remaining activity at 0.3 µM (DYRK1B; [2]): 75.8%
- remaining activity at 0.3 µM (IKKb/IKBKB; [1]): 104%
- remaining activity at 0.3 µM (IKKb/IKBKB; [2]): 102%
- remaining activity at 0.3 µM (KSR2; [1]): 96.9%
- remaining activity at 0.3 µM (KSR2; [2]): 94.2%
- remaining activity at 0.3 µM (MYLK4; [1]): 108%
- remaining activity at 0.3 µM (MYLK4; [2]): 96.9%
- remaining activity at 0.3 µM (STK33; [1]): 32.4%
- remaining activity at 0.3 µM (STK33; [2]): 31.5%
- remaining activity at 0.3 µM (PDK1/PDPK1; [1]): 89.9%
- remaining activity at 0.3 µM (PDK1/PDPK1; [2]): 89.6%
- remaining activity at 0.3 µM (CK1epsilon; [1]): 96.5%
- remaining activity at 0.3 µM (CK1epsilon; [2]): 94.7%
- remaining activity at 0.3 µM (PLK2; [1]): 84%
- remaining activity at 0.3 µM (PLK2; [2]): 83.9%
- remaining activity at 0.3 µM (CAMK1a; [1]): 92.6%
- remaining activity at 0.3 µM (CAMK1a; [2]): 91.5%
- remaining activity at 0.3 µM (JAK3; [1]): 29.3%
- remaining activity at 0.3 µM (JAK3; [2]): 28.7%
- remaining activity at 0.3 µM (ASK1/MAP3K5; [1]): 99%
- remaining activity at 0.3 µM (ASK1/MAP3K5; [2]): 98.6%
- remaining activity at 0.3 µM (PYK2; [1]): 23.7%
- remaining activity at 0.3 µM (PYK2; [2]): 23.5%
- remaining activity at 0.3 µM (MUSK; [1]): 62%
- remaining activity at 0.3 µM (MUSK; [2]): 57.2%
SMILES: COc1cc(N2CCN(C)CC2)c(C)cc1Nc1ncc(Br)c(Nc2cccnc2N(C)C)n1 [TP-5801]
